Measured values: patent US12409238B2, “Silicone-based dyes with short wavelength infrared absorption and emission and methods for making and using the same” (UNIVERSITY OF MISSISSIPPI, priority 2021, dated 2025)

Assays:
[1] = Stability study: half-life in neutral aqueous solutions; format: physicochemical; conditions: xylyl substituted derivatives
From the text: The introduction of the meta-xylyl ring on the silicon-rosindolizine bridge as found to impart substantial stability compared to a tolyl ring on the silicon-rosindolizine bride. […] This increased stability is critically important to some biological imaging applications. The meta-xylyl substituted derivative retain very similar spectral properties to the tolyl derivatives with absorption and emission observed in the SWIR region. […] Application in night vision, solar cells, and photodetectors are also possible with materials absorbing in this spectral region. […] The quantum yield is near 0.01-0.05% in these environments with peak emission of SiRos1 at ˜1350 nm (FIG. 13) and peak emission of SiRos2>1550 nm.

[2] = Emission studies (SWIR emission spectra, 980 nm excitation); format: physicochemical; conditions: organic solvent (dichloromethane) / water when encapsulated in a polymer; SiRos1 in DCM (FIG. 13)
Procedure: 0.1 mg of silicone-based compound was combined with 10 mg DSPE-mPEG2000 (1% loading of dye by mass) in 3 mL of dichloromethane (DCM) in a 10 mL scintillation vial. The solution was vortexed for 10 seconds to homogenously mix the components. DCM was evaporated from the solution on a rotary evaporator at 50° C. until the solution forms a thin paste around the vial. Subsequently, the vial was placed on high vacuum for a half an hour to remove any residual DCM. Next, 3 mL of D2O was added and the resulting mixture was sonicated for one minute with gentle swirling to dissolve the polymer and dye together. The mixture was syringe filtered (0.45 μm) to remove any unencapsulated compound.
The emission spectra of the dyes were recorded from 1000-2500 nm using a liquid nitrogen cooled InAs fluorimeter from Horiba. A 980 nm DPSS (diode pumped solid state laser, max power 2 W) laser was used as the excitation source and the chopper signal was split from the chopper control to the lock-in-amplifier as a reference signal and the trigger signal to the laser controller. All studies were performed at 1e-5 M in DCM or 0.1 mg of dye per 3 mL D2O solution (for D2O, the dyes were solubilized in a commercially available DSPE-mPEG2000 nanoparticle, preparation previously supplied).

CCCCC(CC)CC1=C(c2ccccc2)/C(=c2\ccc3c(c2)[Si](CC(CC)CCCC)(CC(CC)CCCC)c2cc(-c4c(-c5ccccc5)c(CC(CC)CCCC)c5cc(-c6ccc(N(C)C)cc6)ccn45)ccc2C=3c2c(C)cccc2C)[n+]2ccc(-c3ccc(N(C)C)cc3)cc21.[O-][Cl+3]([O-])([O-])[O-] (centres unmarked) [SiRos2, (Z)-7-(4-(dimethylamino)phenyl)-3-(7-(7-(4-(dimethylamino)phenyl)-1-(2-ethylhexyl)-2-phenylindolizin-3-yl)-10-(2,6-dimethylphenyl)-5,5-bis(2-ethylhexyl)dibenzo[b,e]silin-3(5H)-ylidene)-1-(2-ethylhexyl)-2-phenyl-3H-indolizin-4-ium perchlorate]
half-life [1]: longer than a week | peak emission [2]: > 1550 nm

CCCCC(CC)C[Si]1(CC(CC)CCCC)c2cc(-c3c(-c4ccccc4)c(-c4ccc(N(C)C)cc4)c4cc(-c5ccc(N(C)C)cc5)ccn34)ccc2C(c2c(C)cccc2C)=c2cc/c(=C3\C(c4ccccc4)=C(c4ccc(N(C)C)cc4)c4cc(-c5ccc(N(C)C)cc5)cc[n+]43)cc21.[O-][Cl+3]([O-])([O-])[O-] (centres unmarked) [SiRos3, (Z)-3-(7-(1,7-bis(4-(dimethylamino)phenyl)-2-phenylindolizin-3-yl)-10-(2,6-dimethylphenyl)-5,5-bis(2-ethylhexyl)dibenzo[b,e]silin-3(5H)-ylidene)-1,7-bis(4-(dimethylamino)phenyl)-2-phenyl-3H-indolizin-4-ium perchlorate]
half-life [1]: longer than a week

CCCCC(CC)C[Si]1(CC(CC)CCCC)c2cc(-c3c(-c4ccccc4)c(C)c4ccccn34)ccc2C(c2c(C)cccc2C)=c2cc/c(=C3\C(c4ccccc4)=C(C)c4cccc[n+]43)cc21.[O-][Cl+3]([O-])([O-])[O-] (centres unmarked) [SiRos1, (Z)-3-(10-(2,6-dimethylphenyl)-5,5-bis(2-ethylhexyl)-7-(1-methyl-2-phenylindolizin-3-yl)dibenzo[b,e]silin-3(5H)-ylidene)-1-methyl-2-phenyl-3H-indolizin-4-ium perchlorate]
half-life [1]: longer than a week | peak emission [2]: ~1350 nm
